# Laboratory results taken from the METLIN SMRT retention time set (Domingo-Almenara et al. 2019).
# Test: gradient 5% acetonitrile 3 min, to 50% in 2 min, to 85% in 15 min, held 3 min, 100 µL/min
# Details: column: Zorbax Extend-C18 2.1 x 50 mm; eluents: water / acetonitrile, 0.1% formic acid
# Procedure, shortened: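 Each retention time is based on an adduct peak selected computationally and verified by manual inspection. Measurements used HPLC–quadrupole time-of-flight mass spectrometry in positive and negative ionization mode on mixtures of ~100 pure standards. Chromatography ran on a Zorbax Extend-C18 column (2.1 × 50 mm, 1.8 μm) at 100 μL/min with water and acetonitrile, each containing 0.1% formic acid, and dead and dwell volumes of 40 μL and 900 μL.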
row,Compound,RP-LC retention time [s]
1,CCn1c(=O)sc2cc(S(=O)(=O)N3CCC(C(=O)NCc4ccc(C)cc4)CC3)ccc21,932
2,O=S(=O)(Nc1cccc(-c2cn3cccnc3n2)c1)c1ccc(Br)cc1,769
3,CCN1C(=O)c2cccnc2Sc2cc(C(=O)NC(C)C)ccc21,697
4,CNC(=O)C1CC(=O)N(c2cccc(C)c2)C1 (centres undefined),637
5,COc1ccc(NC(=O)Cn2c(N)nc(C)cc2=O)cc1F,593
6,COc1ccc(CNC(=O)c2ccc(CN3CCN(C(C)C)C(=O)C3=O)cc2)cc1,693
7,CCOC(=O)C1CCN(C(=O)C2CCN(c3cnc4nccnc4c3)CC2)CC1,663
8,CC(C)c1ccc(N2C(=O)C3N=NN(Cc4nc(-c5ccc6c(c5)OCO6)no4)C3C2=O)cc1 (centres undefined),1060
9,CN1CCN(CCCNC(=O)C2CCc3sc(C(=O)N4CCCCCC4)cc3C2)CC1 (centres undefined),581
10,Cc1ccc(C2Cn3cnc(C(=O)N4CCC(C(=O)NCc5cc(F)ccc5F)CC4)c3CO2)cc1 (centres undefined),808
11,CCCS(=O)(=O)N1CCCC(Cn2c(C3CC3)nc3cccnc32)C1 (centres undefined),658
12,CCOC(=O)C1CCN(c2cc3c(cc2NC(=O)NCCC(C)C)n(C)c(=O)n3C)CC1,823
13,CCN1C(=O)C(C)(C(=O)NCc2cccc(OC)c2)Oc2cccnc21 (centres undefined),829
14,CCOC(=O)C1=C(CN2CCN(c3ccccn3)CC2)NC(=O)NC1c1ccc(F)cc1 (centres undefined),625
15,Cc1ccc(C)c(Cn2ccn3nc(-c4ccccc4)c(CO)c3c2=O)c1,1030
16,CC1(C(=O)NCc2ccc(F)cc2)Cn2cnc(C(=O)N3CCOCC3)c2C(=O)N1C1CC1 (centres undefined),616
17,Cc1cc(C)cc(NC(=O)C2CCN(S(=O)(=O)c3c(C)[nH]c(C)c3C(=O)N3CCCC3)CC2)c1,695
18,COCCNC(=O)c1ccccc1Sc1nccnc1Oc1ccccc1,852
19,O=C(Nc1ccc2c(c1)OCCO2)c1nn(CC2CC2)c2c1CNCC2,568
20,CN(C(=O)CN1C(=O)NC2(CCCCC2)C1=O)c1ccccc1,740
21,O=C(NC1CCCC1)N1c2ccccc2CC1c1nc(C2CC2)no1 (centres undefined),972
22,Cc1ccc(-c2noc(-c3cccc(S(=O)(=O)Nc4ccc(C#N)cc4)c3)n2)cc1,1140
23,Cc1cc(-c2nnc(NC(=O)C3CCCN(S(=O)(=O)c4cccs4)C3)o2)nn1C (centres undefined),696

row,Compound,RP-LC retention time [s]
1,Cc1cc(Nc2ccc(NC(=O)c3sc(C)nc3C)cc2)nc(N2CCCC2)n1,583
2,Cc1cccc(N2CCN(c3cc(C(=O)O)c4cc(NC(=O)C(C)C)ccc4n3)CC2)c1C,732
3,COCCCNC(=O)C1CCN(c2nc3ccc(-c4ccccc4)nc3s2)CC1,835
4,CC(C)C(=O)Nc1ccc2nc(N3CCN(c4ccccc4F)CC3)cc(C(=O)O)c2c1,664
5,Cc1cccc(-c2noc(Cn3c(=O)n(Cc4ccccc4)c(=O)c4sccc43)n2)c1,1060
6,COc1ccc(S(=O)(=O)N2C[C@H](F)C[C@@H]2C(=O)N2CCOCC2)cc1Cl,721
7,Brc1ccccc1Cc1nc(-c2ccn3cnnc3c2)no1,806
8,O=C(Cc1csc2nc(-c3ccccc3)cn12)N1CCc2ccccc2C1,826
9,CN(C)CC1(O)CCC2(CCN(C(=O)C3CCCC3)CC2)CC1,591
10,Cc1ccc(C(=O)N2CCN(c3nnc4cccc(C)n34)CC2)cc1F,667
11,CCCn1ccc2sc(C)c(C(=O)NCC3CCCCC3)c2c1=O,1010
12,Cc1csc(-c2csc(S(=O)(=O)Nc3ccc(F)c(Cl)c3)c2)n1,1020
13,O=C(NCCc1ccco1)c1ccc2ccnc(N3CCN(c4ccccc4)CC3)c2c1,772
14,Cc1cc(F)ccc1NS(=O)(=O)c1cc(-c2[nH]ncc2C(=O)N(C)C)oc1C,697
15,O=[N+]([O-])c1cccc(-c2nnc3c4cnn(-c5ccc(F)cc5)c4ncn23)c1,1080
16,CCc1cc(=O)n(CC(=O)Nc2ccc(Cl)cc2)c(-c2ccccc2)n1,1190
17,COC(=O)c1onc(C(=O)c2ccccc2)c1C(=O)OC,931
18,CC(C)n1c(=O)oc2cc(-c3noc(-c4cccc(C#N)c4)n3)ccc21,1090
19,CC(C)c1cccc(NC(=O)Cn2cnc3nc(N4CCC(C(=O)NC5CC5)CC4)sc3c2=O)c1,743
20,Cc1cccc(NC(=O)N2CCCC2c2cc(C(C)C)on2)c1 (centres undefined),967
21,O=C(Cn1cnc2ccccc2c1=O)N1CCC(c2nnc(-c3ccco3)s2)CC1,643
22,CCn1ncc(NC(=O)Cc2ccc(Cl)cc2)c(N2CCOCC2)c1=O,836
23,Cc1ccc(CCC(=O)Nc2c(C)cccc2C(=O)O)o1,726

row,Compound,RP-LC retention time [s]
1,Cn1c(=O)c2c(ncn2CC(=O)N2CCC(C)(c3noc(C4CC4)n3)CC2)n(C)c1=O,672
2,COC(=O)c1cc2c(=O)n(-c3cccc(C(F)(F)F)c3)ccc2nc1C,917
3,COc1c(C=O)c2c(c(OC)c1OC)-c1ccc(OC)c(=O)cc1[C@@H](NC(C)=O)CC2,725
4,O=C(N[C@@H]1CN(c2ccncn2)C[C@H]1CO)c1ccc2c(c1)OCO2,578
5,CCCn1c(=O)c(C)nc2cc(-c3noc(-c4cc(OC)cc(OC)c4)n3)ccc21,1090
6,O=C(NCc1cccc(C(F)(F)F)c1)c1ccc2c(c1)ncn2CCN1CCCC1,618
7,CCCn1cnc2c(-c3ccccc3)csc2c1=O,922
8,CN(C)[C@@H]1CN(C(=O)c2cc3cc(Cl)ccc3[nH]2)C[C@H]1CO,622
9,CC(Cc1cccs1)NC(=O)Cc1ccc(SC(C)C)cc1 (centres undefined),969
10,CC1CCN(S(=O)(=O)c2ccc3c(ccn3CC(=O)NCC(C)c3ccccc3)c2)CC1 (centres undefined),1070
11,Cc1cc(C)cc(-n2ccnc(NC(=O)Nc3cccc(F)c3)c2=O)c1,1020
12,CCN(CC)CCNC(=O)C1CCCN(c2ncc(-c3ccc(F)cc3)cn2)C1 (centres undefined),688
13,COc1ccc(-c2cc3c4nnc(SCC(=O)Nc5cccc(Br)c5)n4ccn3n2)cc1,1320
14,CCCCn1nc2c(S(=O)(=O)N3CCCCC3)cccn2c1=O,831
15,CCOC(=O)c1noc2ncnc(N3CCN(c4ccccc4F)CC3)c12,1070
16,Cc1cc(-c2nnc(C3CC3)o2)c(C)n1CC(=O)NCc1ccc(F)cc1F,811
17,CCCN1C(=O)COc2ccc(-c3noc(Cc4ccc(OC)cc4)n3)cc21,1080
18,CCCCNC(=O)C1CCN(S(C)(=O)=O)c2ccccc2O1 (centres undefined),728
19,CC(=O)N1CCc2ccccc2C1C(=O)N1CCN(c2ccc(F)cc2)CC1 (centres undefined),576
20,Cc1ccc(N2CC(C(=O)NC(C)C)CC2=O)cc1 (centres undefined),712
21,COc1cccc(-n2c(N3CCCC(C(=O)NCCc4cccs4)C3)nc3ccsc3c2=O)c1 (centres undefined),879
22,CCOC(=O)c1ccc(NC(=O)Cn2c(N3CCOCC3)nc(CC)cc2=O)cc1,794
23,Cc1cc(N2CCN(c3ccccc3)CC2)nc2ccccc12,710

row,Compound,RP-LC retention time [s]
1,CCn1cnnc1C1CCCCN1S(=O)(=O)c1cccc(F)c1 (centres undefined),716
2,CCNC(=O)N1CCCC(c2cccc(C(=O)NC3CCCCCC3)c2)C1 (centres undefined),876
3,O=S(=O)(NCc1ccc(Br)cc1)c1ccc2c(c1)-c1oncc1CO2,958
4,O=C(Nc1ccc(OC(F)(F)F)cc1)C(=O)Nc1cccc([N+](=O)[O-])c1,1030
5,CN(C)C(CNC(=O)c1cc(-c2ccc3c(c2)OCCO3)on1)c1ccc(F)cc1 (centres undefined),681
6,CCOC(=O)c1cc(S(=O)(=O)N2CCCC2C(=O)NC(C)C)cn1C (centres undefined),746
7,Cc1noc(COC2CCCN(C(=O)CCc3c(C)noc3C)C2)n1 (centres undefined),678
8,CN1C(=O)c2cc(C(=O)NCCN3CCCC3)nn2CC1(C)C(=O)NCc1ccc(F)cc1 (centres undefined),580
9,CC(C)n1c(=O)oc2cc(-c3noc(-c4cc(F)ccc4F)n3)ccc21,1130
10,O=C(CC1CCN(C(=O)c2cc3cc(Cl)ccc3[nH]2)CC1)N1CCN(c2ccccn2)CC1,669
11,O=C(c1cccs1)N1CCc2c([nH]c3ccccc23)C1c1ccc(F)cc1 (centres undefined),1150
12,O=C(c1ccc2c(c1)N(Cc1ccccc1)C(=O)CO2)N1CCN(c2ccccn2)CC1,1230
13,CCN(CC)CCSC(=O)C(c1ccccc1)c1ccccc1,765
14,COc1ccc(C)cc1NC(=O)C1CCCN(C(=O)C2Sc3ccccc3NC2=O)C1 (centres undefined),852
15,CCNC(=O)c1cc(N2CCCC2)nc2c(C)cccc12,702
16,Cc1noc(-c2ccc(OC3CN(C(=O)Cc4ccccc4)C3)cc2)n1,924
17,Cc1ccc(-c2nocc2CCC(=O)O)cc1,748
18,Cn1cc(S(=O)(=O)N2CCCCC2)cc1C(=O)Nc1ccc2c(c1)OCCO2,917
19,O=C(CC1CCN(C(=O)c2ccc3nc(-c4ccccc4)oc3c2)CC1)NC1CC1,730
20,CC1=C(c2cccc(Cl)c2)S(=O)(=O)N=C1N1CCCN(C(=O)C(C)C)CC1,786
